# From patent US20150044701A1, “IgA-BINDING PEPTIDE AND IgA PURIFICATION USING THE SAME” (KAGOSHIMA UNIVERSITY, priority 2011, published 2015)
# No end group written: not given here.
# B1: Opt2 M2Q L16T V12T (peptide)
# peptide: HQVCLSYRGRPTCFST
# modifications: not fully specified (bridges); cysteine pairing not given here
# B2: Opt2 M2Q L16T R10 Q V12T (peptide)
# peptide: HQVCLSYRGQPTCFST
# modifications: not fully specified (bridges); cysteine pairing not given here
# B3: Opt2 M2Q F14Y (peptide)
# peptide: HQVCLSYRGRPVCYSL
# modifications: not fully specified (bridges); cysteine pairing not given here
# B4: Opt2 M2Q V12T (peptide)
# peptide: HQVCLSYRGRPTCFSL
# modifications: not fully specified (bridges); cysteine pairing not given here
# B5: Opt2 14AA (peptide)
# peptide: HMVCLSYRGRPVCF
# modifications: not fully specified (bridges); cysteine pairing not given here
# B6: Opt2 M2Q R10Q (peptide)
# peptide: HQVCLSYRGQPVCFSL
# modifications: not fully specified (bridges); cysteine pairing not given here
# B7: Opt2 15AA (peptide)
# peptide: HMVCLSYRGRPVCFS
# modifications: not fully specified (bridges); cysteine pairing not given here
# B8: Opt2 M2Q L16T (peptide)
# peptide: HQVCLSYRGRPVCFST
# modifications: not fully specified (bridges); cysteine pairing not given here
# B9: Opt2 M2Q L16T R10Q (peptide)
# peptide: HQVCLSYRGQPVCFST
# modifications: not fully specified (bridges); cysteine pairing not given here
# B10: Opt2 M2Q (peptide)
# peptide: HQVCLSYRGRPVCFSL
# modifications: not fully specified (bridges); cysteine pairing not given here
# How the values were obtained:
# human IgA = experiment: Surface plasmon resonance analysis (BiaCore T100) of peptide binding to human IgA; details: binding affinity to human IgA
# Procedure: In order to verify binding specificity of such peptides, binding strength was evaluated via surface plasmon resonance analysis using a BiaCore T100 (GE Healthcare).
# human IgA (human) = experiment: SPR (Biacore T100)
Molecule,Kd (human IgA) [nM],Kd (human IgA (human)) [nM]
HQVCLSYRGRPVCYSL [Opt2 M2Q F14Y],624,–
HQVCLSYRGRPTCFST [Opt2 M2Q L16T V12T],952,–
HQVCLSYRGQPVCFST [Opt2 M2Q L16T R10Q],699,–
HQVCLSYRGRPVCFST [Opt2 M2Q L16T],72,–
HQVCLSYRGQPTCFST [Opt2 M2Q L16T R10 Q V12T],2820,–
HQVCLSYRGRPVCFSL [Opt2 M2Q],23,–
HQVCLSYRGRPTCFSL [Opt2 M2Q V12T],149,–
HQVCLSYRGQPVCFSL [Opt2 M2Q R10Q],65,–
HMVCLSYRGRPVCF [Opt2 14AA],603,–
HMVCLSYRGRPVCFS [Opt2 15AA],491,–
B1,–,952
B2,–,2820
B3,–,624
B4,–,149
B5,–,603
B6,–,65
B7,–,491
B8,–,72
B9,–,699
B10,–,23
